Key:
[1] = target: 5-hydroxytryptamine receptor 2A (Homo sapiens, UniProt P28223); test: Binding affinity at human cloned 5-hydroxytryptamine 2A receptor.
[2] = target: 5-hydroxytryptamine receptor 7 (Homo sapiens, UniProt P34969); test: Binding affinity at human cloned 5-hydroxytryptamine 7 receptor.
[3] = target: T1, 5-hydroxytryptamine receptor 1A (Homo sapiens, UniProt P08908); test: Binding affinity towards 5-hydroxytryptamine 1A receptor in human using [3H]8-OH-DPAT as radioligand
T1 sequence (P08908 whole entry): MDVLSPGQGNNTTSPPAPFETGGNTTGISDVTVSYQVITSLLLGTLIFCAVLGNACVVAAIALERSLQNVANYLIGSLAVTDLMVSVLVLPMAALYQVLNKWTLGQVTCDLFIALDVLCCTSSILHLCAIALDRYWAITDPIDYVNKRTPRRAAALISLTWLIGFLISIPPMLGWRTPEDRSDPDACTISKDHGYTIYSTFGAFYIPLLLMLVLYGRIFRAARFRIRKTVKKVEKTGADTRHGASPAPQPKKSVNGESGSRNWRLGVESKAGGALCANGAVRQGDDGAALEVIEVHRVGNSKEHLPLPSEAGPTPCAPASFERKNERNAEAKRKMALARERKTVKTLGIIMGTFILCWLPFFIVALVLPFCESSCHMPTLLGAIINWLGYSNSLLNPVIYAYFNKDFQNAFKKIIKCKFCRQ

[4] = target: 5-hydroxytryptamine receptor 1B (Homo sapiens, UniProt P28222); test: Binding affinity towards cloned human 5-hydroxytryptamine 1B receptor was determined
Chain of 5-hydroxytryptamine receptor 1B (P28222 whole entry): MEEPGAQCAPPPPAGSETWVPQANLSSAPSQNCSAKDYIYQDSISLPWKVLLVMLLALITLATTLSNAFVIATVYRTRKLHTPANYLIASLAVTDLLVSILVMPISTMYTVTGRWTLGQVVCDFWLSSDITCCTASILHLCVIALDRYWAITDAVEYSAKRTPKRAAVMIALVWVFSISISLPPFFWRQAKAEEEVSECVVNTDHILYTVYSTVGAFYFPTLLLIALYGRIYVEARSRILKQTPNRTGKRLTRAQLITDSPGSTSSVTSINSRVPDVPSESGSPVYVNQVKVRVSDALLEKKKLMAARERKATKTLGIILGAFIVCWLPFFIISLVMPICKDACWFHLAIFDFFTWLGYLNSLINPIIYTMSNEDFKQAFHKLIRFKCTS

[5] = target: 5-hydroxytryptamine receptor 1E (Homo sapiens, UniProt P28566); test: Binding affinity towards cloned human 5-hydroxytryptamine 1E receptor was determined
Chain of 5-hydroxytryptamine receptor 1E (P28566 whole entry): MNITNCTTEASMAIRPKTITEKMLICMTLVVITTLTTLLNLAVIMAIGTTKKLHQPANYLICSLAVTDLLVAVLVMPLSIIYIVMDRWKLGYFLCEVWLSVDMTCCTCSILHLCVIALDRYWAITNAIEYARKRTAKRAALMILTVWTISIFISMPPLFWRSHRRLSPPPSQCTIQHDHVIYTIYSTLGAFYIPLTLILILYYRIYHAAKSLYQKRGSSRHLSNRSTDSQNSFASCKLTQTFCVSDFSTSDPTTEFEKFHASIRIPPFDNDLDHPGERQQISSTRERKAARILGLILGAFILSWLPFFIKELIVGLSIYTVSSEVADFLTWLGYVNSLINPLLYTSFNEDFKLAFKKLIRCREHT

[6] = target: 5-hydroxytryptamine receptor 1D (Homo sapiens, UniProt P28221); test: Binding affinity towards cloned human 5-hydroxytryptamine 1D receptor
Chain of 5-hydroxytryptamine receptor 1D (P28221 whole entry): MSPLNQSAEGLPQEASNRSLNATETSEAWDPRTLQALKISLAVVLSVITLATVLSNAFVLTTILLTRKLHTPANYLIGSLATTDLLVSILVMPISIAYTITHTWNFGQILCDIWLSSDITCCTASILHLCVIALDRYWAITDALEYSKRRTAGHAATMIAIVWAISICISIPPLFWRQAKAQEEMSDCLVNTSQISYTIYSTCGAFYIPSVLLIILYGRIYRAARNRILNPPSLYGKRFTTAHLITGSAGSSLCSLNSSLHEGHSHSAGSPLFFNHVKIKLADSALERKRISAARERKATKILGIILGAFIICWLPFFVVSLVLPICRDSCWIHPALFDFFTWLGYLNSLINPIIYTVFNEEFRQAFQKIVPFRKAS

[7] = target: T2, 5-hydroxytryptamine receptor 2C (Homo sapiens, UniProt P28335); test: Binding affinity towards cloned human 5-hydroxytryptamine 2C receptor was determined
T2 sequence (P28335 whole entry): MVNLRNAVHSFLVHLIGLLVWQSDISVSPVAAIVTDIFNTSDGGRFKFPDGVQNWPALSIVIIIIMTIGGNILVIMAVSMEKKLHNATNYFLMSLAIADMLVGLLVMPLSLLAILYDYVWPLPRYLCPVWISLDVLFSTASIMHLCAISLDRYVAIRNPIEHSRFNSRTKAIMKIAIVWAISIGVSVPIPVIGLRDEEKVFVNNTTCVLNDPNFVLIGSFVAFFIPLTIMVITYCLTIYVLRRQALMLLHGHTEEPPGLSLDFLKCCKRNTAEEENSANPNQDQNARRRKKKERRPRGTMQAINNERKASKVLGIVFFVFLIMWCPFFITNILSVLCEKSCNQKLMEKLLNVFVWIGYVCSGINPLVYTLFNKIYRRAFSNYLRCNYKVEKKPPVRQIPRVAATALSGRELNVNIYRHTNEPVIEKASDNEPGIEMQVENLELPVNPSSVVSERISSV

[8] = target: 5-hydroxytryptamine receptor 2B (Homo sapiens, UniProt P41595); test: Binding affinity towards cloned human 5-hydroxytryptamine 2B receptor was determined
[9] = target: 5-hydroxytryptamine receptor 6 (Homo sapiens, UniProt P50406); test: Binding affinity towards human 5-hydroxytryptamine 6 receptor
Chain of 5-hydroxytryptamine receptor 6 (P50406 whole entry): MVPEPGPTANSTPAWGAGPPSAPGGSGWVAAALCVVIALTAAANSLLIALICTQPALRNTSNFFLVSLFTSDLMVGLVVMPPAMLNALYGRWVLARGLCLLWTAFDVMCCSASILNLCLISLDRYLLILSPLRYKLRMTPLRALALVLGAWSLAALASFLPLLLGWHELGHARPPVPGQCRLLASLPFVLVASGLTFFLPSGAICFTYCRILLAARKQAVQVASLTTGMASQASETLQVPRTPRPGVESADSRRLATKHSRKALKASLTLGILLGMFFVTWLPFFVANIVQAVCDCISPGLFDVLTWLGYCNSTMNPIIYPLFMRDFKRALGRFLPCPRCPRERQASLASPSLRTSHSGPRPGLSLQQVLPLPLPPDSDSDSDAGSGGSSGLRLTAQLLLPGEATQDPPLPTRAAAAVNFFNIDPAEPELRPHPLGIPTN

Cytochrome P450 2C19 = Cytochrome P450 2C19 (Homo sapiens, UniProt P33261); test: Inhibition of human Cytochrome P450 2C19; assay type: ADME
Chain of Cytochrome P450 2C19 (P33261 whole entry, canonical isoform): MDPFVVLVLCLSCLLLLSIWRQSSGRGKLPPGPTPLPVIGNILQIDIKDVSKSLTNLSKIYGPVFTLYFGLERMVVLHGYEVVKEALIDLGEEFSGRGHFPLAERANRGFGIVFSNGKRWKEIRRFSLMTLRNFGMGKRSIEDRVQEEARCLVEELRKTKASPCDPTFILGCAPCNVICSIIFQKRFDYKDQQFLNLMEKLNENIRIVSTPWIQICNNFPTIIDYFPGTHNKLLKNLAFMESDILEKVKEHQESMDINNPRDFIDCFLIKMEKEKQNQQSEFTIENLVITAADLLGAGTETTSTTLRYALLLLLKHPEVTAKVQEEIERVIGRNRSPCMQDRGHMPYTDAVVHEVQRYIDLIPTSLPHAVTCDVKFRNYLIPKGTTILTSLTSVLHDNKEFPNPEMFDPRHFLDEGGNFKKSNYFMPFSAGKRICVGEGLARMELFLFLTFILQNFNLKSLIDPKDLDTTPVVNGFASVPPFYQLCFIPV

Cytochrome P450 2C9 = Cytochrome P450 2C9 (Homo sapiens, UniProt P11712); test: Inhibition of human cytochrome P450 isoform 2C9; assay type: ADME
Chain of Cytochrome P450 2C9 (P11712 whole entry, canonical isoform): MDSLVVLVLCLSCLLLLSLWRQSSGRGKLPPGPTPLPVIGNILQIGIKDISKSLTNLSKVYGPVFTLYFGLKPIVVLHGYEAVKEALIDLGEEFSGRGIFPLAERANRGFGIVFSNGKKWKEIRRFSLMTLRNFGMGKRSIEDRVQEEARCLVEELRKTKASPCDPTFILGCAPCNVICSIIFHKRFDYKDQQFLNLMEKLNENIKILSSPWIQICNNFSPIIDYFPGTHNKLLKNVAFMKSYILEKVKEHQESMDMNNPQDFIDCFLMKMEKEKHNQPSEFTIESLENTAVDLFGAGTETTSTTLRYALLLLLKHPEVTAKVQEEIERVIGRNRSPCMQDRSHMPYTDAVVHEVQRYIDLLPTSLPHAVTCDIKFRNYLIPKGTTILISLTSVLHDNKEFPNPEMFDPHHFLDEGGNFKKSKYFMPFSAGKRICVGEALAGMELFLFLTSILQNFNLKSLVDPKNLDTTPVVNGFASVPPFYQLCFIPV

Cytochrome P450 2D6 = Cytochrome P450 2D6 (Homo sapiens, UniProt P10635); test: Inhibition of human Cytochrome P450 2D6; assay type: ADME
Chain of Cytochrome P450 2D6 (P10635 whole entry): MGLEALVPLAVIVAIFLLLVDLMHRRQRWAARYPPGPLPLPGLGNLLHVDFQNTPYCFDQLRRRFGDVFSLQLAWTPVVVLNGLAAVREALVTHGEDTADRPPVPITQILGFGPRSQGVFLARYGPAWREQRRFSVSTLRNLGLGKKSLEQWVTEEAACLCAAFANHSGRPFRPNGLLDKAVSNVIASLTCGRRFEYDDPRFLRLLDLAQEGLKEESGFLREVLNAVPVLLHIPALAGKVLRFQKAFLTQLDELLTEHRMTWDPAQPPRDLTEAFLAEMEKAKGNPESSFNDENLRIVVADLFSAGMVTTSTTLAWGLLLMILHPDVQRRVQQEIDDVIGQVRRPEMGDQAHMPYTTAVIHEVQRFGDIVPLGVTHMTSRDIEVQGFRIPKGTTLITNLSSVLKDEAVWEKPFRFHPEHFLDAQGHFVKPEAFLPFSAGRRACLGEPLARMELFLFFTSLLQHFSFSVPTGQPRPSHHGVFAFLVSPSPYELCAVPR

Cytochrome P450 3A4 = Cytochrome P450 3A4 (Homo sapiens, UniProt P08684); test: Inhibition of human Cytochrome P450 3A4; assay type: ADME
Chain of Cytochrome P450 3A4 (P08684 whole entry): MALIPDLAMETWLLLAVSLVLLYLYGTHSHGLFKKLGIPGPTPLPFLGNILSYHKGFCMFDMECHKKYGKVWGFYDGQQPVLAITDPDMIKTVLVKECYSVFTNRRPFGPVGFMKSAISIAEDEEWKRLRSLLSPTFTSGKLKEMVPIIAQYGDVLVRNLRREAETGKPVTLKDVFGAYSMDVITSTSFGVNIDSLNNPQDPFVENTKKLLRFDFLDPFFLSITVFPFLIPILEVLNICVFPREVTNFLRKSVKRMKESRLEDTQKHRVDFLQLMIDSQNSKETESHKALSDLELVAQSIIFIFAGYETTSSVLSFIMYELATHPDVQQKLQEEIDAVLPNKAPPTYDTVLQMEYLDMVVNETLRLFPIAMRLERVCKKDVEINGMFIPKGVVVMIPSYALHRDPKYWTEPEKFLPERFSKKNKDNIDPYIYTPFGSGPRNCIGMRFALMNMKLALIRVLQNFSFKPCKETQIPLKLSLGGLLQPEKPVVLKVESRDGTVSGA

D(4) dopamine receptor = target: T3, D(4) dopamine receptor (Homo sapiens, UniProt P21917); test: Binding affinity towards cloned human dopamine D4 receptor was determined
T3 sequence (P21917 whole entry): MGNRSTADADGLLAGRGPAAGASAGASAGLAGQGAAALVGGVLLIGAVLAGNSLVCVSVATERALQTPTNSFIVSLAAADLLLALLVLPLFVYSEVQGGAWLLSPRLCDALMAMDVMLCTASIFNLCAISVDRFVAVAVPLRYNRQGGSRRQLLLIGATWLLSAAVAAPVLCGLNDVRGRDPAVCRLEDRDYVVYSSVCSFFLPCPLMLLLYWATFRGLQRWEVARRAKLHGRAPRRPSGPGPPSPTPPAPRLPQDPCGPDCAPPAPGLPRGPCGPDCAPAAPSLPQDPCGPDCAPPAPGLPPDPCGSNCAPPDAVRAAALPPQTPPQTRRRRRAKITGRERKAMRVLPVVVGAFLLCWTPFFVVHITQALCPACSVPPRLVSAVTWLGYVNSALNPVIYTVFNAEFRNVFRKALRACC

D(3) dopamine receptor = D(3) dopamine receptor (Homo sapiens, UniProt P35462); test: Binding affinity towards cloned human dopamine D3 receptor was determined
[10] = target: T4, 5-hydroxytryptamine receptor 1F (Homo sapiens, UniProt P30939); test: Binding affinity towards cloned human 5-hydroxytryptamine 1F receptor was determined
T4 sequence (P30939 whole entry): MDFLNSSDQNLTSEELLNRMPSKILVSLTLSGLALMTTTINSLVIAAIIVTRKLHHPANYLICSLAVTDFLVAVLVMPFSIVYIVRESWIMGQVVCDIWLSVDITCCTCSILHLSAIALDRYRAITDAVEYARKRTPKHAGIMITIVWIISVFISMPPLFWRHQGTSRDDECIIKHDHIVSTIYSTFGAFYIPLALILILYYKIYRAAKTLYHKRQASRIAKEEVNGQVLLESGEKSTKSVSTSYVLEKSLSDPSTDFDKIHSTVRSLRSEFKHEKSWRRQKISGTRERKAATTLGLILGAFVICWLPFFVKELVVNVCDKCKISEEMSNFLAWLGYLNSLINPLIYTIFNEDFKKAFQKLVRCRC

[11] = target: 5-hydroxytryptamine receptor 5A (Homo sapiens, UniProt P47898); test: Binding affinity towards cloned human 5-HT5A receptor was determined
Chain of 5-hydroxytryptamine receptor 5A (P47898 whole entry): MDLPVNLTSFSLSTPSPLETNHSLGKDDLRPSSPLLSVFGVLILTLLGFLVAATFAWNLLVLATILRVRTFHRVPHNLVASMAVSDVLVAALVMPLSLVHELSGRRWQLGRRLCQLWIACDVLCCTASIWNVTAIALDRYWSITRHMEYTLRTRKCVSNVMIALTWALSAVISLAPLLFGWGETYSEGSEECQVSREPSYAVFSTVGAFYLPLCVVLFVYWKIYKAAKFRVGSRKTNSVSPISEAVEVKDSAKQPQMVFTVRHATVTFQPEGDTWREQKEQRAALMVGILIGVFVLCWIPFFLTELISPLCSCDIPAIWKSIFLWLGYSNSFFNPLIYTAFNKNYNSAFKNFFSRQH

Cytochrome P450 1A2 = target: T5, Cytochrome P450 1A2 (Homo sapiens, UniProt P05177); test: Inhibition of human Cytochrome P450 1A2; assay type: ADME
T5 sequence (P05177 whole entry): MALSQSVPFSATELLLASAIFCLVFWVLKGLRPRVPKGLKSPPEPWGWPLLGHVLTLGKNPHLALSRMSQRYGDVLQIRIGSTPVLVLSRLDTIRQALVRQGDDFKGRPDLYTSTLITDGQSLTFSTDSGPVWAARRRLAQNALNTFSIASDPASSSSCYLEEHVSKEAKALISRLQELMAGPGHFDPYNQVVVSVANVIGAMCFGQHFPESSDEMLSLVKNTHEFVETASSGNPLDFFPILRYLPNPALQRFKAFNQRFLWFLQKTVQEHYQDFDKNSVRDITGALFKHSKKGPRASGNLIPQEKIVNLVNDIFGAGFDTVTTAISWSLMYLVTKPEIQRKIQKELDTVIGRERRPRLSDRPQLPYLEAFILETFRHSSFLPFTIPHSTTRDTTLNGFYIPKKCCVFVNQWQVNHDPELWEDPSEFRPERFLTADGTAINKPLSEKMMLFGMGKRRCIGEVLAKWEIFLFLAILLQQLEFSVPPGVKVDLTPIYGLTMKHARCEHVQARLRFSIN

Chain of 5-hydroxytryptamine receptor 7 (P34969 whole entry): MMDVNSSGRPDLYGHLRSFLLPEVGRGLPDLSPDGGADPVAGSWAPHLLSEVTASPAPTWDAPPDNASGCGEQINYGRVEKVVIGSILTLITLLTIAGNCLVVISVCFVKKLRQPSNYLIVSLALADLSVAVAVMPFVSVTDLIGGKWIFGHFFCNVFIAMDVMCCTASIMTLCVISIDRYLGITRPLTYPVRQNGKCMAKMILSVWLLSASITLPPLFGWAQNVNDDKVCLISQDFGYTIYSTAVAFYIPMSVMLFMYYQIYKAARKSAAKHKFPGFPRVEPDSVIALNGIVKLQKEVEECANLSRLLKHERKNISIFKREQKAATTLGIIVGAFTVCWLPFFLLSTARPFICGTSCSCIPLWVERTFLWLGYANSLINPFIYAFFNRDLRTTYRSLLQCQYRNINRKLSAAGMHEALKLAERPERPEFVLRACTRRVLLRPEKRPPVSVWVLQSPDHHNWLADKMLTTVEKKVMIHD
Chain of 5-hydroxytryptamine receptor 2A (P28223 whole entry): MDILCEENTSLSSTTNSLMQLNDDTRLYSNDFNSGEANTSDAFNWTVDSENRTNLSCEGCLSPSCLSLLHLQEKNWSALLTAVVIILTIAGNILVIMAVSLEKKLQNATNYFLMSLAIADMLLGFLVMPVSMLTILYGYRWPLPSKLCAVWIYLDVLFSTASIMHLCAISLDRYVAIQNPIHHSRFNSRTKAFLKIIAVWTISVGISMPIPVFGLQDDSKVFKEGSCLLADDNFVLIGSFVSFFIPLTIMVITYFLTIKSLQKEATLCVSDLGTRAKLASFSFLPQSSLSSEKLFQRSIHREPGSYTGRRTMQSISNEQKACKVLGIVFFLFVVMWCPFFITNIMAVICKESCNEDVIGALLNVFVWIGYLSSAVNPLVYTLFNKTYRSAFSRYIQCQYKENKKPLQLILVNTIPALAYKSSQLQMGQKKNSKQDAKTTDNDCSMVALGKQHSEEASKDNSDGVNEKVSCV

Row | SMILES | Ki [1] [nM] | Ki [2] [nM] | further results
1 | O=C1c2ccccc2CCCN1CCN1CCC(n2c(=O)oc3ccccc32)CC1 | 977 | 27.5 | –
2 | O=C(c1ccc(F)cc1)C1CCN(CCN2CCCc3ccccc3C2=O)CC1 | 17 | 1.66 | –
3 | O=C1c2ccccc2CCCN1CCN1CCC(n2c(=O)[nH]c3cc(F)ccc32)CC1 | 302 | 2.24 | Ki [3]: 479 nM; Ki [4]: > 3980 nM; Ki [5]: > 10000 nM; Ki [6]: 2400 nM; Ki [7]: 3310 nM; Ki [8]: 1000 nM; Ki [9]: > 5010 nM; IC50 (Cytochrome P450 2C19): > 100000 nM; IC50 (Cytochrome P450 2C9): 35000 nM; IC50 (Cytochrome P450 2D6): 10000 nM; IC50 (Cytochrome P450 3A4): > 100000 nM; Ki (D(4) dopamine receptor): 1230 nM; Ki (D(3) dopamine receptor): 1700 nM; Ki [10]: > 10000 nM; Ki [11]: 1480 nM; IC50 (Cytochrome P450 1A2): 62000 nM
4 | O=C1c2ccccc2CCCN1CCN1CCC(n2nnc3ccccc32)CC1 | 269 | 14.1 | –
5 | O=C1c2ccccc2CCCN1CCN1CCC(c2c[nH]c3ccccc23)CC1 | 1.7 | 0.407 | –
6 | O=C1c2ccccc2CCCN1CCN1CCC(n2ccc3cc(F)ccc32)CC1 | 6.92 | 0.562 | –
7 | O=C1CC(CN2CCC(Oc3ccccc3)CC2)CCc2ccccc21 (stereo not given) | – | 18.6 | –
8 | COc1ccccc1C1CCN(CC2CCc3ccccc3C(=O)C2)CC1 (stereo not given) | – | 11.2 | –
9 | O=C(c1ccc(Cl)cc1)C1CCN(CCN2CCCc3ccccc3C2=O)CC1 | 77.6 | 2.51 | –
10 | O=C1c2ccccc2CCCC1CCN1CCC(Oc2ccccc2)CC1 (stereo not given) | – | 25.1 | –
11 | O=C1c2ccccc2CCCN1CCN1CCC(n2c(=O)oc3cc(F)ccc32)CC1 | 186 | 9.33 | –
12 | O=C1c2ccccc2CCCN1CCN1CCC(n2c(O)nc3ccccc32)CC1 | > 1580 | 10.2 | –
13 | O=C1c2ccccc2CCCN1CCN1CCC(Oc2ccc(F)cc2)CC1 | 31.6 | 4.47 | –
14 | O=C1c2ccccc2CCCN1CCN1CCC(Oc2ccc(Cl)cc2)CC1 | 74.1 | 11.7 | –
15 | Cc1ccc(OC2CCN(CCN3CCCc4ccccc4C3=O)CC2)cc1 | 55 | 9.12 | –
16 | Cc1ccccc1OC1CCN(CCC2CCCc3ccccc3C2=O)CC1 (stereo not given) | – | 11.2 | –
17 | O=C1c2ccccc2CCCN1CCN1CCC(n2nnc3cc(F)ccc32)CC1 | 49 | 2.04 | –
18 | O=C1c2ccccc2CCCN1CCN1CCC(Oc2ccccc2)CC1 | 155 | 20.4 | –
19 | O=C1c2ccccc2CCCN1CCN1CCC(n2ccc3ccccc32)CC1 | 19.5 | 2.75 | –

Source: ChEMBL document CHEMBL1136643, “Identification of a novel series of selective 5-HT7 receptor antagonists” (Bioorg Med Chem Lett, 2003)
